Experimental data taken from ChEMBL document CHEMBL2062367, “Stigonemapeptin, an Ahp-containing depsipeptide with elastase inhibitory activity from the bloom-forming freshwater cyanobacterium Stigonema sp” (J Nat Prod, 2012).
Activity calls are given as the source filed them.

Columns and labels:
[1] = tested on: HT-29; assay: Cytotoxicity against human HT-29 cells at 25 uM; format: functional, cell-based
[2] = organism: Homo sapiens; assay: Inhibition of 20S proteasome at 25 uM
[3] = organism: Sus scrofa; assay: Inhibition of pig pancreatic trypsin using Nalpha-benzoyl-DL-arginine-4-nitroanilide as substrate at 10 uM incubated for 15 mins prior to substrate addition measured ever 30 secs for 30 mins by spectroscopy

C/C=C1/NC(=O)[C@@H](NC(=O)[C@H](CCC(N)=O)NC(=O)[C@@H]2CCCN2C=O)[C@@H](C)OC(=O)[C@H](C(C)C)NC(=O)[C@H](Cc2ccc(O)cc2)N(C)C(=O)[C@H](Cc2ccccc2)N2C(=O)[C@H](CC[C@H]2O)NC1=O
inactive: Activity [1] | inhibition [2] | inhibition [3]
